Assay results published in patent publication US20130172294A1, “Treatment with VB-201” (Vascular Biogenics Ltd., priority 2010, published 2013).
Values joined by “and” are separate entries in the source; they are usually repeats but may differ in a detail not shown here. Equal entries are not always repeated. Where two headings read alike, the source gives them in different places.

Tests used:
[1] = test system: collagen-induced arthritis; details: in vivo animal model; cited from earlier work
[2] = test system: interferon-γ (IFN-γ)
Method: Plasma levels of interleukin-23 (IL-23) and interferon-γ (IFN-γ) were determined using the FlowCytomix human simplex kits (Bender Medsystems) for the aforementioned cytokines according to the manufacturer instructions. Acquisition of samples was performed using FacsCalibur (Becton Dickinson). Results were analyzed with the FlowCytomix Pro 2.2 Software.
Healthy subjects were treated once a day with 40 mg or 80 mg of VB-201, according to the procedures described in Example 4. Plasma was collected on day 0 (pre-dosing), on day 14 after dosing, and on day 28 after dosing (when administration lasted 28 days). Plasma levels of interleukin-23 (IL-23) and interferon-γ (IFN-γ) were determined as described hereinabove.

[3] = Single-dose pharmacokinetics of VB-201 in plasma (Example 1); assay type: in vivo, human; details: for AUC(0-infinity): in ng·h/mL
Method: Determination of VB-201 concentrations in plasma was performed using an HPLC-MS/MS (high performance liquid chromatography with tandem mass spectrometric detection) assay. Calibration was for a range of from 5 to 500 ng/ml for low doses and from 50 to 5000 ng/ml for high doses. Pharmacokinetic parameters were estimated by using a non-compartmental method, except for the AUC (area under curve), which was determined using a (log-) trapezoidal rule as the area above the previous trough level. […] All subjects were healthy male volunteers. Five cohorts of six subjects each received a single dose of 1, 3, 10, 30 or 50 mg VB-201. 10 subjects received a placebo. The VB-201 was formulated in gelatin capsules enterocoated with Eudragit®. […] Evaluation of relative bioavailability was performed for the primary target parameters AUC (area under the concentration-time curve) and Cmax-(maximum plasma concentration).

[4] = test system: C-reactive protein (CRP)
Method: C-reactive protein (CRP) levels in plasma samples were measured using a CRP Latex assay kit (Olympus) and an AU400® immuno-analyzer (Olympus).
A randomized, double-blind, placebo-controlled study was performed to in order to investigate the safety, tolerability and pharmacokinetics of VB-201 at a repeated, daily dose taken orally. The subjects were all healthy volunteers. Cohorts of six subjects each received a daily dose of 40 or 80 mg VB-201 in the morning, following at least 10 hours of fasting, for 14 days. 6 subjects received a placebo. The VB-201 was formulated in non-enterocoated capsules.
Further studies were performed on an additional cohort, which included six subjects receiving a daily dose of 80 mg VB-201, as described hereinabove, for 28 days. An additional two subjects received a placebo.
Plasma samples obtained on day 0 (pre-dosing) and on day 14 from the subjects in each cohort (40 mg for 14 days, 80 mg for 14 days, and 80 mg for 28 days), and on day 28 from the subjects of the cohort receiving 80 mg VB-201 for 28 days, were assayed for C-reactive protein (CRP) by the high sensitivity CRP assay described hereinabove.

- AUC(0-168) ([3]; single oral dose 1 mg): 501 ± 241 ng·h/mL
- AUC(0-last non-BLQ) ([3]; single oral dose 1 mg): 388 ± 168 ng·h/mL
- AUMC ([3]; single oral dose 1 mg): 70178 ± 38633 hours^2*ng/ml
- Cavg (0-168) ([3]; single oral dose 1 mg): 2.98 ± 1.43 ng/mL
- Cl/F ([3]; single oral dose 1 mg): 1.44 ± 0.087 L/h
- Cmax ([3]; single oral dose 1 mg): 12.52 ± 2.42 ng/mL
- Estimated amount circulating ([3]; single oral dose 1 mg): 0.26 ± 0.05 mg
- Estimated minimum bioavailability ([3]; single oral dose 1 mg): 26 ± 5%
- Ke ([3]; single oral dose 1 mg): 0.0165 ± 0.0099 h⁻¹
- MTT ([3]; single oral dose 1 mg): 76 ± 27 h
- T1/2 ([3]; single oral dose 1 mg): 51 ± 19 h
- Tmax ([3]; single oral dose 1 mg): 8.0 ± 2.1 h
- AUC(0-infinity) ([3]; single oral dose 1 mg): 840 ± 309
- AUC(0-168) ([3]; single oral dose 3 mg): 2575 ± 1027 ng·h/mL
- AUC(0-last non-BLQ) ([3]; single oral dose 3 mg): 2234 ± 1259 ng·h/mL
- AUMC ([3]; single oral dose 3 mg): 214719 ± 133999 hours^2*ng/ml
- Cavg (0-168) ([3]; single oral dose 3 mg): 15.33 ± 6.11 ng/mL
- Cl/F ([3]; single oral dose 3 mg): 1.21 ± 0.49 L/h
- Cmax ([3]; single oral dose 3 mg): 53.21 ± 19.43 ng/mL
- Estimated amount circulating ([3]; single oral dose 3 mg): 1.12 ± 0.41 mg
- Estimated minimum bioavailability ([3]; single oral dose 3 mg): 37 ± 14%
- Ke ([3]; single oral dose 3 mg): 0.015 ± 0.0027 h⁻¹
- MTT ([3]; single oral dose 3 mg): 70 ± 16 h
- T1/2 ([3]; single oral dose 3 mg): 48 ± 10 h
- Tmax ([3]; single oral dose 3 mg): 8.2 ± 3.9 h
- AUC(0-infinity) ([3]; single oral dose 3 mg): 2886 ± 1262
- AUC(0-168) ([3]; single oral dose 10 mg): 6138 ± 2259 ng·h/mL
- AUC(0-last non-BLQ) ([3]; single oral dose 10 mg): 5634 ± 2705 ng·h/mL
- AUMC ([3]; single oral dose 10 mg): 333614 ± 227308 hours^2*ng/ml
- Cavg (0-168) ([3]; single oral dose 10 mg): 36.53 ± 13.44 ng/mL
- Cl/F ([3]; single oral dose 10 mg): 1.83 ± 0.84 L/h
- Cmax ([3]; single oral dose 10 mg): 131.7 ± 20.47 ng/mL
- Estimated amount circulating ([3]; single oral dose 10 mg): 2.77 ± 0.62 mg
- Estimated minimum bioavailability ([3]; single oral dose 10 mg): 28 ± 6%
- Ke ([3]; single oral dose 10 mg): 0.0191 ± 0.0026 h⁻¹
- MTT ([3]; single oral dose 10 mg): 46 ± 20 h
- T1/2 ([3]; single oral dose 10 mg): 37 ± 5 h
- Tmax ([3]; single oral dose 10 mg): 7.1 ± 1.9 h
- AUC(0-infinity) ([3]; single oral dose 10 mg): 6395 ± 2551
- AUC(0-168) ([3]; single oral dose 30 mg): 23243 ± 7277 ng·h/mL
- AUC(0-last non-BLQ) ([3]; single oral dose 30 mg): 23243 ± 7277 ng·h/mL
- AUMC ([3]; single oral dose 30 mg): 1463889 ± 520387 hours^2*ng/ml
- Cavg (0-168) ([3]; single oral dose 30 mg): 138.4 ± 43.32 ng/mL
- Cl/F ([3]; single oral dose 30 mg): 1.37 ± 0.58 L/h
- Cmax ([3]; single oral dose 30 mg): 495.0 ± 154.2 ng/mL
- Estimated amount circulating ([3]; single oral dose 30 mg): 10.40 ± 3.24 mg
- Estimated minimum bioavailability ([3]; single oral dose 30 mg): 35 ± 11%
- Ke ([3]; single oral dose 30 mg): 0.018 ± 0.0021 h⁻¹
- MTT ([3]; single oral dose 30 mg): 59 ± 4 h
- T1/2 ([3]; single oral dose 30 mg): 39 ± 4 h
- Tmax ([3]; single oral dose 30 mg): 6.0 ± 0.9 h
- AUC(0-infinity) ([3]; single oral dose 30 mg): 24668 ± 7941
- AUC(0-168) ([3]; single oral dose 50 mg): 58816 ± 31297 ng·h/mL
- AUC(0-last non-BLQ) ([3]; single oral dose 50 mg): 58816 ± 31297 ng·h/mL
- AUMC ([3]; single oral dose 50 mg): 4719948 ± 3532459 hours^2*ng/ml
- Cavg (0-168) ([3]; single oral dose 50 mg): 350.1 ± 186.3 ng/mL
- Cl/F ([3]; single oral dose 50 mg): 0.97 ± 0.46 L/h
- Cmax ([3]; single oral dose 50 mg): 1172 ± 459.4 ng/mL
- Estimated amount circulating ([3]; single oral dose 50 mg): 24.61 ± 9.65 mg
- Estimated minimum bioavailability ([3]; single oral dose 50 mg): 49%
- Ke ([3]; single oral dose 50 mg): 0.015 ± 0.0027 h⁻¹
- MTT ([3]; single oral dose 50 mg): 67 ± 14 h
- T1/2 ([3]; single oral dose 50 mg): 47 ± 9 h
- Tmax ([3]; single oral dose 50 mg): 6.5 ± 0.8 h
- estimated bioavailability, average of the other 4 subjects ([3]; single oral dose 50 mg): 38%
- estimated bioavailability, 2 subjects with particularly high values ([3]; single oral dose 50 mg, individual subjects): 75% and 71%
- AUC(0-infinity) ([3]; single oral dose 50 mg): 65628 ± 37141
- dose linearity of AUC and Cmax ([3]; single oral doses 1-50 mg): dose-linear and nearly dose-proportional
- highest estimated bioavailability observed in individuals ([3]; single oral doses 1-50 mg): 75%
- lowest estimated bioavailability observed in individuals ([3]; single oral doses 1-50 mg): 18%
Structure (SMILES): CCCCCCCCCCCCCCCCOCC(COP(=O)([O-])OCC[N+](C)(C)C)OCCCCC(=O)O (stereo not shown) [VB-201, 1-hexadecyl-2-(4′-carboxybutyl)-glycerol-3-phosphocholine]
- efficacy in collagen-induced arthritis [1]: effective
- IFN-γ plasma levels ([2]; 40 mg per day, 14 days, one subject (second had no detectable levels)): considerably reduced
- IFN-γ plasma levels ([2]; 80 mg per day, 28 days, two subjects (third had no detectable levels)): considerably reduced
- reduction of plasma CRP levels ([4]; 40 mg per day for 14 days): 49%
- reduction of plasma CRP levels ([4]; 80 mg per day for 14 days): 43%
- reduction of plasma CRP levels ([4]; 80 mg per day for 28 days): 45%
